ChEMBL document CHEMBL3885881, “DrugMatrix”

Organism: Rattus norvegicus
Assay: DrugMatrix - Regimen: Daily Repeat
Assay type: toxicity, organism-based, Sprague-Dawley
Design: regimen Daily Repeat, gender Male, age 6-8 weeks
Settings: in vivo, po, 0 mg/kg, route oral GAVAGE, dose level Control, vehicle 100 % WATER
[1] = 72 h, tissue Plasma, time 3 day
[2] = 120 h, tissue Blood, time 5 day
[3] = 120 h, tissue Plasma, time 5 day

## CADMIUM ACETATE
72 h, tissue Blood, time 3 day
  ABSOLUTE BASOPHIL: 0 CELLS/uL
  ABSOLUTE EOSINOPHIL: 0 CELLS/uL
  ABSOLUTE LYMPHOCYTE: 10386.33 CELLS/uL
  ABSOLUTE MONOCYTE: 88.5 CELLS/uL
  ABSOLUTE SEGMENTED NEUTROPHIL: 1008.5 CELLS/uL
  BASOPHIL: 0%
  EOSINOPHIL: 0%
  ERYTHROCYTE COUNT: 5.16 x10E6/uL
  HEMATOCRIT: 32.43%
  HEMOGLOBIN: 12.98 G/DL
  LEUKOCYTE COUNT: 11.48 x10E3/uL
  LYMPHOCYTE: 92.33%
  MEAN CORPUSCULAR HEMOGLOBIN: 25.23 pg
  MEAN CORPUSCULAR HEMOGLOBIN CONCENTRATION: 40.08 G/DL
  MEAN CORPUSCULAR VOLUME: 62.95 fL
  MONOCYTE: 0.67%
  NEUTROPHIL: 7%
  NUCLEATED RED BLOOD CELLS: 0 /100WBC
  PLATELET COUNT: 1016.67 x10E3/uL
[1]
  ALANINE AMINOTRANSFERASE: 62.17 u/L
  ALBUMIN: 3.95 G/DL
  ALKALINE PHOSPHATASE: 363.5 u/L
  ASPARTATE AMINOTRANSFERASE: 118 u/L
  BLOOD UREA NITROGEN: 14.5 mg/dL
  CARBON DIOXIDE: 22.83 mmol/L
  CHOLESTEROL: 66 mg/dL
  CREATINE PHOSPHOKINASE: 1308.83 u/L
  CREATININE: 0.22 mg/dL
  GLUCOSE: 187.5 mg/dL
  LACTATE DEHYDROGENASE: 380.17 u/L
  LIPASE: 16.17 u/L
  PHOSPHORUS: 14.27 mg/dL
  POTASSIUM: 6.8 MEQ/L
  TOTAL BILIRUBIN: 0.2 mg/dL
  TOTAL PROTEIN: 5.68 G/DL
  URIC ACID: 2.87 mg/dL
[2]
  ABSOLUTE BASOPHIL: 0 CELLS/uL
  ABSOLUTE EOSINOPHIL: 80 CELLS/uL
  ABSOLUTE LYMPHOCYTE: 13301.33 CELLS/uL
  ABSOLUTE MONOCYTE: 180.83 CELLS/uL
  ABSOLUTE SEGMENTED NEUTROPHIL: 1187.83 CELLS/uL
  BASOPHIL: 0%
  EOSINOPHIL: 0.5%
  ERYTHROCYTE COUNT: 5.54 x10E6/uL
  HEMATOCRIT: 35.65%
  HEMOGLOBIN: 14.22 G/DL
  LEUKOCYTE COUNT: 14.75 x10E3/uL
  LYMPHOCYTE: 90.67%
  MEAN CORPUSCULAR HEMOGLOBIN: 25.65 pg
  MEAN CORPUSCULAR HEMOGLOBIN CONCENTRATION: 39.88 G/DL
  MONOCYTE: 1%
  NEUTROPHIL: 7.83%
  NUCLEATED RED BLOOD CELLS: 0.17 /100WBC
  PLATELET COUNT: 1285.33 x10E3/uL
[3]
  ALANINE AMINOTRANSFERASE: 51.67 u/L
  ALKALINE PHOSPHATASE: 391.5 u/L
  ASPARTATE AMINOTRANSFERASE: 99.5 u/L
  BLOOD UREA NITROGEN: 15.5 mg/dL
  CARBON DIOXIDE: 28.33 mmol/L
  CHOLESTEROL: 67.83 mg/dL
  CREATINE PHOSPHOKINASE: 771.33 u/L
  CREATININE: 0.23 mg/dL
  GLUCOSE: 156.5 mg/dL
  LACTATE DEHYDROGENASE: 544.33 u/L
  LIPASE: 10.17 u/L
  PHOSPHORUS: 12.03 mg/dL
  POTASSIUM: 6.81 MEQ/L
  TOTAL BILIRUBIN: 0.22 mg/dL
  TOTAL PROTEIN: 6 G/DL
  URIC ACID: 2.18 mg/dL
